The test system of assay [1] is Jatropha leaf disc explants. As to the kind of experiment: Adventitious bud induction and callus formation from leaf disc explants on initiation media. The format is cell-based, Jatropha curcas. Conditions: TDZ treatment. An excerpt:
Micropropagated true-to-type Jatropha curcas plants were produced and leaf discs were isolated and sterilized using the methods described in Example 1.
Experiments were set-up in a single-factor CRD (one-way ANOVA) to identify the most optimal concentrations of TDZ, BAP, and IBA in the initiation media. Initiated shoots were further propagated as described in the above Examples by being transferred to proliferation and elongation medium which was MS medium (Table 2) with 3% sucrose (w/v), pH 5.8 and solidified with 0.8% agar supplemented with TDZ (0.22 μM)+BAP (4.44 μM)+gibberelic acid (0.70 μM)+IBA (0.50 μM).
All the treatments were performed with 25 replicates, each replication having 8 leaf discs. Data on number of shoots per leaf disc were recorded after 6 weeks of culture.
Leaf discs cultured on almost all hormonal combinations readily produced hard and compact callus on cut surface within 30 days of culture. The adventitious bud induction from leaf disc explants was studied in presence of various concentrations of TDZ and BAP as a source of cytokinin along with very low levels of IBA.
Data scored after 6 weeks of culture inoculation.

In assay [2] the test system is shoots of Jatropha curcas. As to the kind of experiment: Rooting of well grown shoots on full strength MS medium. The format is cell-based. As to conditions: full strength MS medium supplemented with IBA (0.41 μM). The method, then: Well grown shoots of Jatropha curcas were separated individually and rooted on full strength MS medium supplemented with IBA (0.41 μM). Rooting was 80% and occurred after 30-45 days of culture without any intermediary callus phase. (FIG. 4)

Each structure is given as a SMILES string.

Take `O=C(Nc1ccccc1)Nc1cnns1` [TDZ, 1-phenyl-3-(1,2,3-thiadiazol-5-yl) urea]: in assay [1], the “total number of shoot bud induction per leaf disc” value is given as 4-20 buds.
For the compound `O=C(O)CCCc1c[nH]c2ccccc12` [IBA, indole-3-butyric acid], in assay [2], the “Time until rooting occurred” value lay in the range of 30 to 45 days. The Rooting in assay [2] (without intermediary callus phase) came out at 80%.
